Data as given in ChEMBL document CHEMBL5257025, “Artemisinin-Derived Dimers: Potent Antimalarial and Anticancer Agents” (J Med Chem, 2016).
pIC50: −log10 of the molar value. Each block holds one molecule with its values, some of them ahead of it.

Tests used:
MCF7 = assay: Antiproliferative activity against human MCF7 cells assessed as reduction in cell viability measured after 48 hrs by SRB assay; assay type: functional, cell-based; conditions: MCF7, 48 h
BeWo = assay: Antiproliferative activity against human BeWo cells assessed as reduction in cell viability after 72 hrs by MTT assay; assay type: functional, cell-based
P388 = assay: Antiproliferative activity against mouse P388 cells assessed as cell growth inhibition incubated for 72 hrs by MTT assay; assay type: functional, cell-based; conditions: P388, 72 h
HT-29 = assay: cells; conditions: Homo sapiens, HT-29, 72 h
EL4 = assay: Antiproliferative activity against mouse EL4 cells assessed as cell growth inhibition incubated for 72 hrs by MTT assay; assay type: functional, cell-based; conditions: EL4, 72 h
BT-474 = assay: Antiproliferative activity against human BT-474 cells assessed as reduction in cell growth measured after 72 hrs by MTT assay; assay type: functional, cell-based; conditions: BT-474, 72 h
[1] = Cytotoxicity against African green monkey Vero cells; assay type: toxicity, cell-based; conditions: chlorocebus sabaeus, read-out: TC50 (the source's name)
[2] = Antiproliferative activity against human BC cells assessed as growth inhibition; assay type: functional, cell-based
KB = assay: Antiproliferative activity against human KB cells assessed as reduction in cell viability incubated for 48 hrs by MTT assay; assay type: functional, cell-based
Plasmodium falciparum [3] = assay: Antimalarial activity against Plasmodium falciparum K1 assessed as inhibition of malarial growth; assay type: functional, organism-based
Plasmodium falciparum [4] = assay: microbe, parasite or virus in culture; conditions: K1
Description: Antiplasmodial activity against Plasmodium falciparum K1 assessed as inhibition of parasitic growth

HeLa = assay: Antiproliferative activity against human Hela cells assessed as cell growth inhibition measured after 48 hrs by MTT assay; assay type: functional, cell-based
[5] = Cytotoxicity against human HFF cells assessed as cell growth inhibition measured after 48 hrs by MTT assay; assay type: toxicity, cell-based
HCT-116 = assay: Antiproliferative activity against human HCT-116 cells assessed as growth after 48 hrs by MTT assay; assay type: functional, cell-based; conditions: HCT-116, 48 h
Plasmodium falciparum [6] = assay: Antiplasmodial activity against Plasmodium falciparum NF54 assessed as reduction in malarial growth; assay type: functional, organism-based
MDA-MB-231 = assay: Antiproliferative activity against human MDA-MB-231 cells assessed as reduction in cell viability measured after 48 hrs by MTT assay; assay type: functional, cell-based; conditions: MDA-MB-231, 48 h
Plasmodium falciparum [7] = assay: Antimalarial activity against Plasmodium falciparum HB3 assessed as inhibition of malarial growth; assay type: functional, organism-based

SMILES: C[C@@H]1CC[C@H]2[C@@H](C)C(CCS(=O)(=O)CCC3O[C@@H]4O[C@]5(C)CC[C@@H]6[C@@H](C)CC[C@H]([C@@H]3C)[C@]46OO5)O[C@H]3O[C@@]4(C)CC[C@@H]1[C@]32OO4 (some centres undefined)
pIC50 (MCF7): 7.40
pIC50 (BeWo): 5.80
pIC50 (P388): 5.07
pIC50 (HT-29): 6.24
pIC50 (EL4): 6.09

SMILES: C[C@@H]1CC[C@H]2[C@@H](C)C(CC(CC3O[C@@H]4O[C@]5(C)CC[C@@H]6[C@@H](C)CC[C@H]([C@@H]3C)[C@]46OO5)C(=O)NN)O[C@H]3O[C@@]4(C)CC[C@@H]1[C@]32OO4 (some centres undefined)
pIC50 (BT-474): 7.89

SMILES: CCCCC[C@@]1(C[C@@H]2C(=O)O[C@H]3O[C@@]4(C)CC[C@H]5[C@H](C)CC[C@@H]2[C@@]35OO4)O[C@H]2O[C@@]3(C)CC[C@H]4[C@H](C)CC[C@@H]([C@H]1C)[C@@]24OO3
CC50 [1]: 63000 nM
pIC50 [2]: 4.44
pIC50 (KB): 4.64

SMILES: C[C@H]1[C@H](CCCC[C@H]2O[C@H]3O[C@@]4(C)CC[C@H]5[C@H](C)CC[C@@H]([C@H]2C)[C@@]35OO4)O[C@H]2O[C@@]3(C)CC[C@H]4[C@H](C)CC[C@@H]1[C@@]24OO3
pIC50 (Plasmodium falciparum [3]): 8.85
CC50 [1]: 10000 nM
pIC50 [2]: 5.80
pIC50 (KB): 5.74

SMILES: C[C@@H]1CC[C@H]2[C@@H](C)C(CSCCSCC3O[C@H]4O[C@@]5(C)CC[C@H]6[C@H](C)CC[C@@H]([C@H]3C)[C@@]46OO5)O[C@H]3O[C@@]4(C)CC[C@@H]1[C@]32OO4 (some centres undefined)
pIC50 (Plasmodium falciparum [4]): 8.13

SMILES: C[C@@H]1CC[C@H]2[C@@H](C)C(CC(COP(=O)(O)Oc3ccccc3)CC3O[C@@H]4O[C@]5(C)CC[C@@H]6[C@@H](C)CC[C@H]([C@@H]3C)[C@]46OO5)O[C@H]3O[C@@]4(C)CC[C@@H]1[C@]32OO4 (some centres undefined)
pIC50 (HeLa): 4.73
IC50 at 48 h [5]: 56500 nM
pIC50 (HCT-116): 5.18

SMILES: C[C@@H]1CC[C@H]2[C@H](C[C@]3(CCCCc4ccccc4)O[C@H]4O[C@@]5(C)CC[C@H]6[C@H](C)CC[C@@H]([C@H]3C)[C@@]46OO5)C(=O)O[C@H]3O[C@@]4(C)CC[C@@H]1[C@]32OO4
CC50 [1]: 2400 nM
pIC50 [2]: 5.92
pIC50 (Plasmodium falciparum [6]): 8.47
pIC50 (KB): 5.24

SMILES: C[C@@H]1CC[C@H]2[C@@H](C)C(CC(CC3O[C@@H]4O[C@]5(C)CC[C@@H]6[C@@H](C)CC[C@H]([C@@H]3C)[C@]46OO5)CN3CCN(c4ccccn4)CC3)O[C@H]3O[C@@]4(C)CC[C@@H]1[C@]32OO4 (some centres undefined)
pIC50 (MDA-MB-231): 5.30
pIC50 (BT-474): 7.66

SMILES: C[C@@H]1CC[C@H]2[C@@H](C)C(CCOC(=O)c3ccc(C(=O)OCCC4O[C@H]5O[C@@]6(C)CC[C@H]7[C@H](C)CC[C@@H]([C@H]4C)[C@@]57OO6)cc3)O[C@H]3O[C@@]4(C)CC[C@@H]1[C@]32OO4 (some centres undefined)
pIC50 (Plasmodium falciparum [4]): 8.34

SMILES: C[C@@H]1CC[C@H]2[C@@H](C)C(CCOC(=O)CCC(=O)OCCC3O[C@H]4O[C@@]5(C)CC[C@H]6[C@H](C)CC[C@@H]([C@H]3C)[C@@]46OO5)O[C@H]3O[C@@]4(C)CC[C@@H]1[C@]32OO4 (some centres undefined)
pIC50 (Plasmodium falciparum [3]): 8.74
pIC50 (Plasmodium falciparum [7]): 8.85

SMILES: C[C@@H]1CC[C@H]2[C@@H](C)C(CSCCCCCSCC3O[C@@H]4O[C@]5(C)CC[C@@H]6[C@@H](C)CC[C@H]([C@@H]3C)[C@]46OO5)O[C@H]3O[C@@]4(C)CC[C@@H]1[C@]32OO4 (some centres undefined)
pIC50 (Plasmodium falciparum [4]): 7.92

SMILES: CC(=O)N1CCN(CC(CC2O[C@@H]3O[C@]4(C)CC[C@@H]5[C@@H](C)CC[C@H]([C@@H]2C)[C@]35OO4)CC2O[C@H]3O[C@@]4(C)CC[C@H]5[C@H](C)CC[C@@H]([C@H]2C)[C@@]35OO4)CC1 (some centres undefined)
pIC50 (MDA-MB-231): 5.10
pIC50 (BT-474): 7.22

SMILES: C[C@@H]1CC[C@H]2[C@@H](C)C(CCOC(=O)CCCC(=O)OCCC3O[C@H]4O[C@@]5(C)CC[C@H]6[C@H](C)CC[C@@H]([C@H]3C)[C@@]46OO5)O[C@H]3O[C@@]4(C)CC[C@@H]1[C@]32OO4 (some centres undefined)
pIC50 (Plasmodium falciparum [3]): 8.62
pIC50 (Plasmodium falciparum [7]): 8.96

SMILES: C[C@@H]1CC[C@H]2[C@@H](C)C(CCNC(=O)CCC(N)C(=O)NCCC3O[C@H]4O[C@@]5(C)CC[C@H]6[C@H](C)CC[C@@H]([C@H]3C)[C@@]46OO5)O[C@H]3O[C@@]4(C)CC[C@@H]1[C@]32OO4 (some centres undefined)
pIC50 (MCF7): 4.68
pIC50 (BeWo): < 4.56
pIC50 (P388): 4.67
pIC50 (HT-29): 5.05
pIC50 (EL4): 4.65

SMILES: C[C@@H]1CC[C@H]2[C@@H](C)C(CCOCc3ccccc3COCCC3O[C@H]4O[C@@]5(C)CC[C@H]6[C@H](C)CC[C@@H]([C@H]3C)[C@@]46OO5)O[C@H]3O[C@@]4(C)CC[C@@H]1[C@]32OO4 (some centres undefined)
pIC50 (Plasmodium falciparum [3]): 8.54
pIC50 (Plasmodium falciparum [7]): 8.89

SMILES: C[C@@H]1CC[C@H]2[C@@H](C)C(CC(CC3O[C@@H]4O[C@]5(C)CC[C@@H]6[C@@H](C)CC[C@H]([C@@H]3C)[C@]46OO5)CN3CCN(C)CC3)O[C@H]3O[C@@]4(C)CC[C@@H]1[C@]32OO4 (some centres undefined)
pIC50 (MDA-MB-231): 5.48
pIC50 (BT-474): 6.96

SMILES: C[C@@H]1CC[C@H]2[C@@H](C)C(CCS(=O)(=O)CCCS(=O)(=O)CCC3O[C@@H]4O[C@]5(C)CC[C@@H]6[C@@H](C)CC[C@H]([C@@H]3C)[C@]46OO5)O[C@H]3O[C@@]4(C)CC[C@@H]1[C@]32OO4 (some centres undefined)
pIC50 (MCF7): 5.13
pIC50 (BeWo): 4.95
pIC50 (P388): 4.96
pIC50 (HT-29): 6.30
pIC50 (EL4): 4.88

SMILES: C[C@@H]1CC[C@H]2[C@@H](C)C(CCOCc3cccc(COCCC4O[C@H]5O[C@@]6(C)CC[C@H]7[C@H](C)CC[C@@H]([C@H]4C)[C@@]57OO6)c3)O[C@H]3O[C@@]4(C)CC[C@@H]1[C@]32OO4 (some centres undefined)
pIC50 (Plasmodium falciparum [3]): 8.57
pIC50 (Plasmodium falciparum [7]): 8.68

SMILES: C[C@@H]1CC[C@H]2[C@@H](C)C(CSCCCCSC3O[C@H]4O[C@@]5(C)CC[C@H]6[C@H](C)CC[C@@H]([C@H]3C)[C@@]46OO5)O[C@H]3O[C@@]4(C)CC[C@@H]1[C@]32OO4 (some centres undefined)
pIC50 (Plasmodium falciparum [4]): 8.24

SMILES: C[C@H]1[C@H](CCCCC[C@H]2O[C@H]3O[C@@]4(C)CC[C@H]5[C@H](C)CC[C@@H]([C@H]2C)[C@@]35OO4)O[C@H]2O[C@@]3(C)CC[C@H]4[C@H](C)CC[C@@H]1[C@@]24OO3
pIC50 (Plasmodium falciparum [3]): 9.04
CC50 [1]: 2800 nM
pIC50 [2]: 6.44
pIC50 (KB): 6.12

SMILES: C[C@H]1[C@@H](CCCCNC(=O)CC[C@H]2O[C@H]3O[C@@]4(C)CC[C@H]5[C@H](C)CC[C@@H]([C@H]2C)[C@@]35OO4)O[C@H]2O[C@@]3(C)CC[C@H]4[C@H](C)CC[C@@H]1[C@@]24OO3
pIC50 (MCF7): < 4.52
pIC50 (BeWo): < 4.52
pIC50 (P388): < 4.52
pIC50 (HT-29): 4.52
pIC50 (EL4): < 4.52

SMILES: C[C@@H]1CC[C@H]2[C@@H](C)C(CCOC(=O)c3ccccc3C(=O)OCCC3O[C@H]4O[C@@]5(C)CC[C@H]6[C@H](C)CC[C@@H]([C@H]3C)[C@@]46OO5)O[C@H]3O[C@@]4(C)CC[C@@H]1[C@]32OO4 (some centres undefined)
pIC50 (Plasmodium falciparum [3]): 8.59
pIC50 (Plasmodium falciparum [7]): 8.80

SMILES: C[C@@H]1CC[C@H]2[C@H](C[C@]3(Cc4cccc(F)c4)O[C@H]4O[C@@]5(C)CC[C@H]6[C@H](C)CC[C@@H]([C@H]3C)[C@@]46OO5)C(=O)O[C@H]3O[C@@]4(C)CC[C@@H]1[C@]32OO4
CC50 [1]: 5500 nM
pIC50 [2]: 5.46
pIC50 (KB): 5.40

SMILES: C[C@@H]1CC[C@H]2[C@@H](C)C(CSCCCSCC3O[C@H]4O[C@@]5(C)CC[C@H]6[C@H](C)CC[C@@H]([C@H]3C)[C@@]46OO5)O[C@H]3O[C@@]4(C)CC[C@@H]1[C@]32OO4 (some centres undefined)
pIC50 (Plasmodium falciparum [4]): 7.89

SMILES: C[C@@H]1CC[C@H]2[C@@H](C)C(CC(CC3O[C@@H]4O[C@]5(C)CC[C@@H]6[C@@H](C)CC[C@H]([C@@H]3C)[C@]46OO5)CN3CCN(c4cccnc4)CC3)O[C@H]3O[C@@]4(C)CC[C@@H]1[C@]32OO4 (some centres undefined)
pIC50 (MDA-MB-231): 5.00
pIC50 (BT-474): 7.15

SMILES: C[C@@H]1CC[C@H]2[C@H](C[C@]3(Cc4ccc(F)cc4)O[C@H]4O[C@@]5(C)CC[C@H]6[C@H](C)CC[C@@H]([C@H]3C)[C@@]46OO5)C(=O)O[C@H]3O[C@@]4(C)CC[C@@H]1[C@]32OO4
CC50 [1]: 1100 nM
pIC50 [2]: 5.13
pIC50 (KB): 5.11

SMILES: C[C@H]1[C@@H](CCNC(=O)CC[C@H]2O[C@H]3O[C@@]4(C)CC[C@H]5[C@H](C)CC[C@@H]([C@H]2C)[C@@]35OO4)O[C@H]2O[C@@]3(C)CC[C@H]4[C@H](C)CC[C@@H]1[C@@]24OO3
pIC50 (MCF7): 8.10
pIC50 (BeWo): 4.92
pIC50 (P388): 4.77
pIC50 (HT-29): 5.96
pIC50 (EL4): 5.00

SMILES: C[C@@H]1CC[C@H]2[C@@H](C)C(CCOC(=O)c3cccc(C(=O)OCCC4O[C@H]5O[C@@]6(C)CC[C@H]7[C@H](C)CC[C@@H]([C@H]4C)[C@@]57OO6)c3)O[C@H]3O[C@@]4(C)CC[C@@H]1[C@]32OO4 (some centres undefined)
pIC50 (Plasmodium falciparum [4]): 7.37

pIC50 (MCF7): 7.22
pIC50 (P388): 7.22
pIC50 (HT-29): 7.22
SMILES: CO[C@@]12[C@H](COC(N)=O)C3=C(C(=O)C(C)=C(N)C3=O)N1C[C@@H]1N[C@@H]12 [MITOMYCIN]
pIC50 (BeWo): 7.22
pIC50 (EL4): 7.22
